{
  "source": "ChEMBL document CHEMBL1147342",
  "about": "“Isolation and structure of the marine sponge cell growth inhibitory cyclic peptide phakellistatin 1” (1993)",
  "tested_on": "P388",
  "test": "Cytotoxicity against mouse P388 cells",
  "assay_type": "functional",
  "details": "read-out: ED50 (the source's name)",
  "note": "Peptide text beside a SMILES is read from it.",
  "data": [
    {"smiles": "CC[C@H](C)[C@@H]1NC(=O)[C@@H]2CCCN2C(=O)[C@H]([C@@H](C)CC)NC(=O)[C@@H]2CCCN2C(=O)[C@H](Cc2ccc(O)cc2)NC(=O)[C@@H]2CCCN2C(=O)[C@H](Cc2ccccc2)NC1=O", "note": "[PHAKELLISTATIN 1] (cyclo(FPYPIPI))", "values": [
      {"measurement": "EC50", "value": 7.5, "unit": "µg/mL"}
    ]}
  ]
}
